Measurements taken from PMC2760346 (Bioorganic & medicinal chemistry, 2009).
Blank lines part the entries; values can stand above or below the molecule they belong to.

Experiments:
human P2Y14 receptor [1] = biological target: T1, human P2Y14 receptor (Homo sapiens, UniProt Q15391); experiment: Stimulation of PLC; format: cell-based; details: for activation of the P2Y14 receptor, % of full activation: at 10 μM; for fold less potent than 1 at the P2Y14 receptor: relative to 1
T1 sequence (Q15391 1-338): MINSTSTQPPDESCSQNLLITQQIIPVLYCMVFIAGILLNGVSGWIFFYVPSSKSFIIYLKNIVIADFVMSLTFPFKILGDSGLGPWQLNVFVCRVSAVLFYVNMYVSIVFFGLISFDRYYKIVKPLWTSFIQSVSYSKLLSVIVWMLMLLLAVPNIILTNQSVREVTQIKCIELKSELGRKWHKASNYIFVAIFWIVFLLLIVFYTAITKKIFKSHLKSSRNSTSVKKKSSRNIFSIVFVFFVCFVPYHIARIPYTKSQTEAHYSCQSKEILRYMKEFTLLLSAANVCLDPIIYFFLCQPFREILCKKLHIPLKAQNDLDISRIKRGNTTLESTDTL

human P2Y2 receptor = human P2Y2 receptor (Homo sapiens, UniProt P41231); format: cell-based; details: at concentrations up to 10 μM
human P2Y14 receptor [2] = biological target: T1, human P2Y14 receptor; details: cited from earlier work
rat P2Y14 receptor = details: cited from earlier work

Sequence of human P2Y2 receptor (P41231 whole entry): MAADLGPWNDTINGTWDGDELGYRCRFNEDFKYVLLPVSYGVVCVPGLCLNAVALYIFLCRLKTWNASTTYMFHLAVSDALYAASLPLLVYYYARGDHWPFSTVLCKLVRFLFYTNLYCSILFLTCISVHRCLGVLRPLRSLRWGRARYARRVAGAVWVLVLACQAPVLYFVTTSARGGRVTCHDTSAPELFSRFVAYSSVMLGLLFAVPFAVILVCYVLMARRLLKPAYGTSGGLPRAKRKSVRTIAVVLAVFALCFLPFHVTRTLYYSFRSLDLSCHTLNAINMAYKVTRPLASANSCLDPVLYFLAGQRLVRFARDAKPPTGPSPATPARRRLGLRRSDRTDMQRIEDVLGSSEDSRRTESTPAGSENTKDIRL

Structure (SMILES): O=c1ccn([C@@H]2O[C@H](COP(=O)(O)OP(=O)(O)O[C@H]3O[C@H](CO)[C@@H](O)[C@H](O)[C@H]3F)[C@@H](O)[C@H]2O)c(=O)[nH]1 [Compound 11, UDP-2″-F-[1″]2″-deoxy glucose]
fold less potent than 1 at the P2Y14 receptor (human P2Y14 receptor [1]): 9.6 fold

Structure (SMILES): CO/N=c1/ccn([C@@H]2O[C@H](COP(=O)(O)OP(=O)(O)O[C@H]3O[C@H](CO)[C@@H](O)[C@H](O)[C@H]3O)[C@@H](O)[C@H]2O)c(=O)[nH]1 [Compound 4, Diphosphoric Acid 1″-α-D-[1″]Glucopyranosyl Ester 2-((N^4-methoxy)cytidin-5′-yl)ester]
agonist activity at the P2Y14 receptor (human P2Y14 receptor [1]): only weakly active

Structure (SMILES): O=c1ccn([C@@H]2O[C@H](COP(=O)(O)OP(=O)(O)O[C@H]3O[C@H](CO)[C@@H](O)[C@H](O)[C@H]3O)[C@@H](O)[C@H]2O)c(=S)[nH]1 [Compound 2, 2-thio-UDP-[1″]glucose]
activity at the human P2Y2 receptor (activation of PLC) (human P2Y2 receptor): inactive | fold increase in P2Y14 potency (human P2Y14 receptor [2]; relative to 1): 7 fold

Structure (SMILES): O=c1ccn([C@@H]2O[C@H](COP(=O)(O)OP(=O)(O)O[C@H]3O[C@H](CO)[C@@H](O)[C@H](F)[C@H]3O)[C@@H](O)[C@H]2O)c(=O)[nH]1 [Compound 12, UDP-3″-F-[1″]3″-deoxy glucose]
activity at the human P2Y2 receptor (activation of PLC) (human P2Y2 receptor): inactive

Structure (SMILES): O=c1ccn([C@@H]2O[C@H](COP(=O)(O)OP(=O)(O)O[C@H]3O[C@H](CO)[C@@H](F)[C@H](O)[C@H]3O)[C@@H](O)[C@H]2O)c(=O)[nH]1 [Compound 13, UDP-4″-F-[1″]4″-deoxy glucose]
fold less potent than 1 at the P2Y14 receptor (human P2Y14 receptor [1]): 2 fold

Structure (SMILES): O=c1ccn([C@@H]2O[C@H](COP(=O)(O)OP(=O)(O)O)[C@@H](O)[C@H]2O)c(=O)[nH]1 [UDP, Uridine 5′-diphosphate]
type of activity at the human P2Y14 receptor (human P2Y14 receptor [2]): partial agonist/competitive antagonist | type of activity at the rat P2Y14 receptor (rat P2Y14 receptor): potent agonist

Structure (SMILES): O=c1ccn(C2CC(O)C(COP(=O)(O)OP(=O)(O)OC3OC(CO)C(O)C(O)C3O)O2)c(=O)[nH]1 (stereo not shown) [2′-deoxy-UDPG]
activity at the P2Y14 receptor (human P2Y14 receptor [2]): inactive

Second part, the molecule after the results:

activation of the P2Y14 receptor, % of full activation (human P2Y14 receptor [1]): < 20%
Structure (SMILES): O=c1ccn([C@@H]2C[C@H](COP(=O)(O)OP(=O)(O)O[C@H]3O[C@H](CO)[C@@H](O)[C@H](O)[C@H]3O)[C@@H](O)[C@H]2O)c(=O)[nH]1 [Compound 29, Diphosphoric Acid 1″-α-D-[1″]Glucopyranosyl Ester 2-(carbocyclic uridin-5′-yl)ester]

activation of the P2Y14 receptor, % of full activation (human P2Y14 receptor [1]): less than 50%
Structure (SMILES): O=c1ccn([C@@H]2O[C@H](COP(=O)(O)OP(=O)(O)OC[C@H]3O[C@H](O)C[C@@H](O)[C@@H]3O)[C@@H](O)[C@H]2O)c(=O)[nH]1 [Compound 20, Up2-[6″]2″-deoxyglucose]

EC50 (human P2Y14 receptor [1]): > 10 µM | agonist activity at the P2Y14 receptor (human P2Y14 receptor [1]): abolished agonist activity
Structure (SMILES): O=c1ccn([C@@]23C[C@H]2[C@H](COP(=O)(O)OP(=O)(O)O[C@H]2O[C@H](CO)[C@@H](O)[C@H](O)[C@H]2O)[C@@H](O)[C@H]3O)c(=O)[nH]1 [Compound 27, Diphosphoric Acid 1″-α-D-[1″]Glucopyranosyl Ester 2-((S)-Methanocarba-uridin-5′-yl)ester]

EC50 (human P2Y14 receptor [1]): > 10 µM | agonist activity at the P2Y14 receptor (human P2Y14 receptor [1]): abolished agonist activity
Structure (SMILES): O=c1ccn([C@H]2[C@H](O)[C@H](O)[C@@]3(COP(=O)(O)OP(=O)(O)O[C@H]4O[C@H](CO)[C@@H](O)[C@H](O)[C@H]4O)C[C@H]23)c(=O)[nH]1 [Compound 28, Diphosphoric Acid 1″-α-D-[1″]Glucopyranosyl Ester 2-((N)-Methanocarba-uridin-5′-yl)ester]

efficacy at the P2Y14 receptor (human P2Y14 receptor [1]): fully activated the receptor
Structure (SMILES): NCCNC(=O)[C@H]1O[C@H](OP(=O)(O)OP(=O)(O)OC[C@H]2O[C@@H](n3ccc(=O)[nH]c3=O)[C@H](O)[C@@H]2O)[C@H](O)[C@@H](O)[C@@H]1O [Compound 16, Diphosphoric Acid 1″-α-D-[1″](Glucuronic acid-N-(2-amino-ethyl amide))pyranosyl Ester 2-(uridin-5′-yl)ester]

efficacy at the P2Y14 receptor (human P2Y14 receptor [1]): fully activate | activity at the human P2Y2 receptor (activation of PLC) (human P2Y2 receptor): inactive
Structure (SMILES): CC(=O)NCCNC(=O)[C@H]1O[C@H](OP(=O)(O)OP(=O)(O)OC[C@H]2O[C@@H](n3ccc(=O)[nH]c3=O)[C@H](O)[C@@H]2O)[C@H](O)[C@@H](O)[C@@H]1O [Compound 17a, Diphosphoric Acid 1″-α-D-[1″](Glucuronic acid-N-(2-acetylethyl amide))pyranosyl Ester 2-(uridin-5′-yl)ester]

fold decrease in P2Y14 potency on inversion of the 2″-hydroxyl configuration (human P2Y14 receptor [1]; relative to 21): 2 fold
Structure (SMILES): O=c1ccn([C@@H]2O[C@H](COP(=O)(O)OP(=O)(O)OC[C@H]3O[C@H](O)[C@@H](O)[C@@H]3O)[C@@H](O)[C@H]2O)c(=O)[nH]1 [Compound 22, Up2-[5″]arabinose]

fold less potent than 1 at the P2Y14 receptor (human P2Y14 receptor [1]): 3.5 fold
Structure (SMILES): O=c1ccn([C@@H]2O[C@H](COP(=O)(O)OP(=O)(O)O[C@H]3O[C@H](CF)[C@@H](O)[C@H](O)[C@H]3O)[C@@H](O)[C@H]2O)c(=O)[nH]1 [Compound 14, UDP-6″-F-[1″]6″-deoxy glucose]

activity at the human P2Y2 receptor (activation of PLC) (human P2Y2 receptor): inactive
Structure (SMILES): O=c1ccn([C@@H]2O[C@H](COP(=O)(O)OP(=O)(O)OC[C@H]3O[C@](O)(CO)[C@@H](O)[C@@H]3O)[C@@H](O)[C@H]2O)c(=O)[nH]1 [Compound 24, Up2-[6″]fructose]

efficacy at the P2Y14 receptor (human P2Y14 receptor [1]): fully activate
Structure (SMILES): CC(C)(C)OC(=O)NCCNC(=O)[C@H]1O[C@H](OP(=O)(O)OP(=O)(O)OC[C@H]2O[C@@H](n3ccc(=O)[nH]c3=O)[C@H](O)[C@@H]2O)[C@H](O)[C@@H](O)[C@@H]1O [Compound 17b, Diphosphoric Acid 1″-α-D-[1″] (Glucuronic acid-N-(2-t-butyloxycarbonylethyl amide))pyranosyl Ester 2-(uridin-5′-yl)ester]
